For 13 compounds, IC50 results are on record in patent US20080207632A1, “PROTEIN KINASE INHIBITORS” (SUPERGEN, INC., priority 2006, published 2008).

Where only a bound is given, the exact number is not on record here.

For one assay, the target named is T1, aurora-2 kinase (Homo sapiens, UniProt O14965).
T1 construct: purchased Upstate, Lake Placid, N.Y; host or cells: sf9 cells
T1 sequence (O14965 1-403): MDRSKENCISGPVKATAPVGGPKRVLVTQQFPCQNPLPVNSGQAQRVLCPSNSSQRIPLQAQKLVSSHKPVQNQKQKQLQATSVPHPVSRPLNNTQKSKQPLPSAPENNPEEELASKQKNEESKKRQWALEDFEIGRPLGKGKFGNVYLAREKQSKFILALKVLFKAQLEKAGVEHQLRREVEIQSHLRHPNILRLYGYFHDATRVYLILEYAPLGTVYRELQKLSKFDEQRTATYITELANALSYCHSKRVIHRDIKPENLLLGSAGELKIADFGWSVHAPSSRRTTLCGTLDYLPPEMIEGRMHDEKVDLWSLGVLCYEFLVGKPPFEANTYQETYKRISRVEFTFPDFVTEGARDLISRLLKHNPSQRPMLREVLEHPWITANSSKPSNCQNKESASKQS
The assay can be described thus: aurora-2 kinase inhibition assay (Kinase-Glo, ATP remaining). It is filed as biochemical. Conditions: Example 17; 3 μM ATP; read-out: IC50 (drug concentration at which 50% of aurora-2 kinase activity was inhibited). On the procedure:
In this assay kinase activity was determined by quantifying the amount of ATP remaining in solution following a kinase reaction by measuring the light units (LU) produced by luciferase using a luminometer. Percent inhibition was determined for individual compounds by comparing luminometer readings of drug-treated reactions to controls containing no drug (DMSO control) and no Aurora-2 enzyme (ATP control) in the following equation: […]
(§1) In a 50 μl reaction, recombinant aurora-2 kinase produced in sf9 cells (Upstate, Lake Placid, N.Y.) was incubated at 30° C. for two hours with 62.5 μM Kemptide (Calbiochem, San Diego, Calif.), 3 μM ATP (Invitrogen, Carlsbad, Calif.) and kinase reaction buffer (40 mM Tris-HCl, 10 mM MgCl2 and 0.1 μg/μl bovine serum albumin (BSA)). This reaction was carried out in the presence of drug substances, which had been previously diluted to desired concentrations in DMSO. After incubation, 50 μl of Kinase-Glo® (Promega, Inc., Madison, Wis.) solution was added to each reaction mixture and allowed to equilibrate for 10 minutes at room temperature. Kinase-Glo solution contains luciferase enzyme and luciferin, which react with ATP to produce light. Kinase activity is determined by quantifying the amount of ATP remaining in solution following the kinase reaction by measuring the light units (LU) produced by luciferase using a luminometer (Thermo-Electron, Vantaa, Finland).
Briefly, kinase activity was determined by quantifying the amount of ATP remaining in solution following a kinase reaction by measuring the light units (LU) produced by luciferase using a luminometer. Percent inhibition was determined for individual compounds by comparing luminometer readings of drug-treated reactions to controls containing no drug (DMSO control) and no Aurora-2 enzyme (ATP control) in the following equation: […]
as §1, with “μg/Il” for “μg/μl”
Illustrative compounds 2-3, 2-5, 2-7, 2-4 and 2-9 were evaluated in an aurora-2 kinase inhibition assay. In this assay kinase activity was determined by quantifying the amount of ATP remaining in solution following a kinase reaction by measuring the light units (LU) produced by luciferase using a luminometer. Percent inhibition was determined for individual compounds by comparing luminometer readings of drug-treated reactions to controls containing no drug (DMSO control) and no Aurora-2 enzyme (ATP control) in the following equation: […]
In general terms: Kinase-Glo reads ATP consumption through a luciferase reaction.
For `CC(=O)NS(=O)(=O)c1ccc(NC(=S)N2CCN(c3ncnc4[nH]c5cc(C(F)(F)F)c(Cl)cc5c34)CC2)cc1` [Compound 1-1, 4-(6-Chloro-7-trifluoromethyl-9H-pyrimido[4,5-b]indol-4-yl)-piperazine-1-carbothioic acid (4-acetylsulfamoyl-phenyl)-amide], the IC50 turned out to be 49 nM. Still for that read-out and setting: next, `COc1cc2[nH]c3ncnc(N4CCN(C(=S)Nc5ccc(S(=O)(=O)NC(C)=O)cc5)CC4)c3c2cc1OC` [Compound 1-2, 4-(6,7-Dimethoxy-9H-pyrimido[4,5-b]indol-4-yl)-piperazine-1-carbothioic acid (4-acetylsulfamoyl-phenyl)-amide]: below 5 nM.

Still in this assay, the particulars now being: Example 20; unit from the table's spanning head; read-out: IC50 A2K.
Turning to `COc1cc2[nH]c3ncnc(N4CCN(C(=S)Nc5ccc(S(=O)(=O)NC(C)=O)cc5)CC4)c3c2cc1OC` [Compound 1-2, 4-(6,7-Dimethoxy-9H-pyrimido[4,5-b]indol-4-yl)-piperazine-1-carbothioic acid (4-acetylsulfamoyl-phenyl)-amide], the IC50 is at most 5 nM.

`CC(=O)NS(=O)(=O)c1ccc(NC(=S)N2CCN(c3ncnc4[nH]c5ccc(Cl)cc5c34)CC2)cc1` [Compound 1-3, 4-(6-chloro-9H-pyrimido[4,5-b]indol-4-yl)-piperazine-1-carbothioic acid (4-acetylsulfamoyl-phenyl)-amide]: the IC50 amounted to 74 nM. Turning to `CC(=O)NS(=O)(=O)c1ccc(NC(=S)N2CCN(c3ncnc4[nH]c5cc(F)ccc5c34)CC2)cc1` [Compound 1-4], the IC50 was 23 nM. On the same count and under the same terms, next, `COc1cc2c(cc1O)[nH]c1ncnc(N3CCN(C(=S)Nc4ccc(S(=O)(=O)NC(C)=O)cc4)CC3)c12` [Compound 1-8]: 18 nM; `COc1cc2[nH]c3ncnc(N4CCN(C(=S)Nc5ccc(S(=O)(=O)N6CCOCC6)cc5)CC4)c3c2cc1OC` [Compound 1-26]: 317 nM; `COc1cc2[nH]c3ncnc(N4CCN(C(=S)Nc5ccc(NC(=O)C6CC6)cc5)CC4)c3c2cc1OC` [Compound 1-34]: 2090 nM. On the same count and under the same terms, as for `COc1cc2[nH]c3ncnc(N4CCN(C(=S)Nc5ccc(NC(C)=O)cc5)CC4)c3c2cc1OC` [Compound 1-42], the figure is 4970 nM; as for `COc1cc2[nH]c3ncnc(N4CCN(C(=S)Nc5ccc(S(N)(=O)=O)cc5)CC4)c3c2cc1OC` [Compound 1-107], 586 nM. As for `COc1cc2[nH]c3ncnc(N4CCN(C(=S)Nc5ccc(S(C)(=O)=O)cc5)CC4)c3c2cc1OC` [Compound 1-115], the IC50 was 743 nM.

Staying with this assay, now noted: Example 54, Table 8; 3 μM ATP; read-out: Aurora-2 Inhibition, IC50.
As to `COc1cc2[nH]c3ncnc(N4CCN(C(=S)Nc5ccc(S(=O)(=O)Nc6ccc(F)cc6)cc5)CC4)c3c2cc1OC` [Compound 2-3, 4-(6,7-dimethoxy-9H-pyrimido[4,5-b]indol-4-yl)-N-(4-(N-(4-fluorophenyl)sulfamoyl)phenyl)piperazine-1-carbothioamide], the IC50 worked out at 110 nM. Consider `COc1ccc2c(c1)[nH]c1ncnc(N3CCN(C(=S)Nc4ccc(S(=O)(=O)Nc5ccc(F)cc5)cc4)CC3)c12` [Compound 2-5, 4-(7-methoxy-9H-pyrimido[4,5-b]indol-4-yl)-N-(4-(N-(4-fluorophenyl)sulfamoyl)phenyl)piperazine-1-carbothioamide], for which the IC50 was determined as 569 nM. Still for that read-out and setting: next, `Cc1ccc(NS(=O)(=O)c2ccc(NC(=S)N3CCN(c4ncnc5[nH]c6cc(Cl)c(N7CCOCC7)cc6c45)CC3)cc2)cc1` [Compound 2-9, 4-(7-chloro-6-morpholino-9H-pyrimido[4,5-b]indol-4-yl)-N-(4-(N-tolylsulfamoyl)phenyl)piperazine-1-carbothioamide]: 837 nM.
